Laboratory results: the NIST ThermoML archive (doi:10.1016/j.jct.2006.10.008)

Experiments:
[1] = xn = mol fraction of the nth substance listed; settings: 298.15 K, 101 kPa, Liquid
[2] = excess molar enthalpy (molar enthalpy of mixing); xn = mol fraction of the nth substance listed; settings: 298.15 K, 101 kPa, Liquid, Calvet calorimetry

CCCOC=O [propyl methanoate] + ClCCCCCl
Settings	excess molar enthalpy [kcal/mol]	mass density [kg/m3]
[1], x1 = 0.0695	–	1119.11
[1], x1 = 0.1347	–	1106.03
[1], x1 = 0.1987	–	1092.92
[1], x1 = 0.2624	–	1079.78
[1], x1 = 0.3279	–	1066.03
[1], x1 = 0.3884	–	1053.07
[1], x1 = 0.4509	–	1039.59
[1], x1 = 0.5061	–	1027.51
[1], x1 = 0.5671	–	1013.93
[1], x1 = 0.6204	–	1001.93
[1], x1 = 0.6808	–	988.13
[1], x1 = 0.7363	–	975.18
[1], x1 = 0.7901	–	962.5
[1], x1 = 0.8426	–	950.01
[1], x1 = 0.8965	–	936.97
[1], x1 = 0.9466	–	924.57
[2], x1 = 0.0711	0.00681	–
[2], x1 = 0.1446	0.00982	–
[2], x1 = 0.2182	0.0105	–
[2], x1 = 0.2908	0.00652	–
[2], x1 = 0.3554	0.00213	–
[2], x1 = 0.4191	-0.00306	–
[2], x1 = 0.4755	-0.007	–
[2], x1 = 0.5267	-0.0106	–
[2], x1 = 0.5668	-0.0133	–
[2], x1 = 0.6196	-0.0168	–
[2], x1 = 0.681	-0.0186	–
[2], x1 = 0.7427	-0.0172	–
[2], x1 = 0.8085	-0.0143	–
[2], x1 = 0.875	-0.00939	–
[2], x1 = 0.939	-0.00533	–

ClCCCCCCl [1,5-dichloropentane] + CCOC=O
Settings	excess molar enthalpy [kcal/mol]	mass density [kg/m3]
[1], x2 = 0.0955	–	1084.27
[1], x2 = 0.1752	–	1074.48
[1], x2 = 0.2534	–	1064.51
[1], x2 = 0.3284	–	1054.28
[1], x2 = 0.3985	–	1044.1
[1], x2 = 0.4628	–	1034.31
[1], x2 = 0.5327	–	1023.03
[1], x2 = 0.5897	–	1013.34
[1], x2 = 0.6456	–	1003.36
[1], x2 = 0.698	–	993.61
[1], x2 = 0.7473	–	983.9
[1], x2 = 0.7941	–	974.37
[1], x2 = 0.8401	–	964.52
[1], x2 = 0.8829	–	954.89
[1], x2 = 0.9235	–	945.49
[1], x2 = 0.9625	–	936.01
[2], x2 = 0.1024	0.0337	–
[2], x2 = 0.2043	0.0534	–
[2], x2 = 0.2974	0.0705	–
[2], x2 = 0.3848	0.0801	–
[2], x2 = 0.4598	0.0825	–
[2], x2 = 0.5273	0.081	–
[2], x2 = 0.5845	0.0767	–
[2], x2 = 0.6305	0.071	–
[2], x2 = 0.6809	0.062	–
[2], x2 = 0.7286	0.0551	–
[2], x2 = 0.7798	0.0454	–
[2], x2 = 0.8289	0.0355	–
[2], x2 = 0.8791	0.0261	–
[2], x2 = 0.9215	0.0166	–
[2], x2 = 0.9634	0.0075	–

COC=O [methyl methanoate] + ClCCCl
Settings	excess molar enthalpy [kcal/mol]	mass density [kg/m3]
[1], x1 = 0.0778	–	1227.3
[1], x1 = 0.1458	–	1211.22
[1], x1 = 0.2144	–	1194.43
[1], x1 = 0.2795	–	1177.71
[1], x1 = 0.3474	–	1160.37
[1], x1 = 0.4099	–	1143.76
[1], x1 = 0.4725	–	1126.96
[1], x1 = 0.5316	–	1110.73
[1], x1 = 0.5888	–	1094.68
[1], x1 = 0.6463	–	1077.99
[1], x1 = 0.6998	–	1062.25
[1], x1 = 0.753	–	1046.16
[1], x1 = 0.8045	–	1030.32
[1], x1 = 0.8548	–	1014.49
[1], x1 = 0.9043	–	998.6
[1], x1 = 0.9525	–	982.78
[2], x1 = 0.0754	0.00636	–
[2], x1 = 0.1373	0.011	–
[2], x1 = 0.1901	0.0152	–
[2], x1 = 0.2508	0.019	–
[2], x1 = 0.3109	0.0219	–
[2], x1 = 0.3728	0.0238	–
[2], x1 = 0.4325	0.0247	–
[2], x1 = 0.4874	0.0246	–
[2], x1 = 0.5372	0.024	–
[2], x1 = 0.5928	0.0226	–
[2], x1 = 0.6569	0.0206	–
[2], x1 = 0.7322	0.0175	–
[2], x1 = 0.8084	0.0138	–
[2], x1 = 0.8844	0.00951	–
[2], x1 = 0.9514	0.0049	–
